How the values were obtained:
Settings in all cases: exposure time 48 h
[1] = tested on: Caenorhabditis elegans N2; test: lowest effective concentration for larval growth inhibition (size below effect threshold); higher = less potent
Method in brief: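 Chemical exposure ran for 48 h at 20°C: 50 C. elegans N2 L1 larvae per 96-well in K-medium with killed bacteria, 1% DMSO and 0.5, 1, 5, 10, 50, 100 or 200 µM chemical. Extinction of each worm, read as size on the Biosort, was log-transformed and averaged by well. The lowest effective concentration is the first dose whose plate-adjusted mean size is below a fixed value and remains so at all higher doses; the value is 5.665.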

[2] = tested on: Caenorhabditis elegans N2; test: mean nematode size ln(EXT) after 48 h, plate-adjusted (DMSO control set to 6) (ln(EXT), control-adjusted); higher = larger nematodes / less growth inhibition
Method in brief: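 Synchronised C. elegans N2 L1 larvae (50 per well, 4–6 wells per treatment) were grown for 48 h at 20°C in K-medium with killed OP50, 1% DMSO and 0.5–200 µM chemical. The Biosort measured each worm's extinction, and debris was removed by a growth model. Values were natural-logged and averaged per well. Mean size was then plate-adjusted by subtracting the vehicle control mean and adding 6.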

[3] = tested on: Caenorhabditis elegans N2; test: AC50 for larval growth inhibition (Hill fit); higher = less potent
Method in brief: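 After 48 h at 20°C in K-medium with killed OP50, 1% DMSO and 0.5–200 µM chemical, synchronised C. elegans N2 L1 larvae (50 per well, 96-well plates) were sized individually as extinction on a COPAS Biosort. These values were log-transformed and averaged per well, and wells with fewer than 10 worms were excluded. The AC50 was derived from a constrained Hill fit by weighted genetic-algorithm regression, and out-of-range values are censored.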

Row | Structure (SMILES) | lowest effective concentration [1] [µM] | mean nematode size ln(EXT) (ln) ([2]; 0.5 µM) | mean nematode size ln(EXT) (ln) ([2]; 1 µM) | mean nematode size ln(EXT) (ln) ([2]; 5 µM) | mean nematode size ln(EXT) (ln) ([2]; 10 µM) | mean nematode size ln(EXT) (ln) ([2]; 50 µM) | mean nematode size ln(EXT) (ln) ([2]; 100 µM) | mean nematode size ln(EXT) (ln) ([2]; 200 µM) | AC50 for larval growth inhibition [3] [µM]
1 | COc1ccc(C(=O)Nc2nc3ccccc3c(NCc3ccccc3)c2C#N)cc1 [N-[4-(benzylamino)-3-cyanoquinolin-2-yl]-4-methoxybenzamide] | 1 | 5.68 | 5.65 | 5.49 | 5.41 | 5.18 | 4.88 | 4.46 | > 200
2 | COC(=O)c1c(Cl)c(Cl)c(C(=O)OC)c(Cl)c1Cl [Chlorthal-dimethyl] | 100 | 5.89 | 5.95 | 5.78 | 5.83 | 5.75 | 5.56 | 5.42 | > 200
3 | ClC1=C(Cl)C2(Cl)C3C(Cl)C(Cl)CC3C1(Cl)C2(Cl)Cl (configuration not stated) [Chlordane] | 5 | 5.98 | 5.93 | 5.24 | 4.63 | 3.8 | 3.81 | 3.48 | 8.58
4 | COc1nn(CSP(=S)(OC)OC)c(=O)s1 [Methidathion] | 1 | 5.74 | 5.62 | 5.48 | 5.52 | 5.57 | 5.38 | 4.52 | > 200
5 | C#CCOC(=O)[C@@H](C)Oc1ccc(Oc2ncc(Cl)cc2F)cc1 [Clodinafop-propargyl] | 200 | 5.98 | 5.9 | 6.05 | 5.94 | 6.15 | 5.84 | 5.14 | 106
6 | COP(=O)(OC)C(O)C(Cl)(Cl)Cl (configuration not stated) [Trichlorfon] | 5 | 5.57 | 5.69 | 5.42 | 5.31 | 4.77 | 4.73 | 3.96 | 80.1
7 | Nc1ccc(N=Nc2ccccc2)cc1 [4-Aminoazobenzene] | 5 | 5.63 | 5.75 | 5.62 | 5.49 | 4.06 | 3.92 | 3.23 | 31.4
8 | CC1=C2C[C@H]3[C@@H](CC=C4C[C@@H](O)CC[C@@]43C)[C@@H]2CC[C@]12O[C@@H]1C[C@H](C)CN[C@H]1[C@H]2C [Cyclopamine] | 200 | 5.89 | 5.89 | 5.9 | 5.85 | 5.9 | 5.8 | 5.39 | > 200
9 | Cc1c(COC(=O)[C@@H]2[C@H](/C=C(\Cl)C(F)(F)F)C2(C)C)cccc1-c1ccccc1 (racemic) [Bifenthrin] | 200 | 5.92 | 5.85 | 5.84 | 5.96 | 5.9 | 5.78 | 5.37 | > 200
10 | CCc1c(C(=O)NN2CCCCC2)nn(-c2ccc(Cl)cc2Cl)c1-c1ccc(Br)cc1 [Surinabant] | 5 | 5.77 | 5.74 | 5.6 | 5.44 | 5.2 | 5.06 | 4.77 | > 200
11 | CC(C)(c1cc(Br)c(O)c(Br)c1)c1cc(Br)c(O)c(Br)c1 [3,3',5,5'-Tetrabromobisphenol A] | 10 | 5.84 | 5.92 | 5.93 | 5.56 | 4.75 | 4.36 | 4.27 | 28.3
12 | O=C(N[C@@H](c1ccccc1)[C@@H]1CCCCN1)c1cccc(C(F)(F)F)c1Cl | 10 | 5.86 | 5.78 | 5.75 | 5.66 | 5.2 | 4.58 | 4.47 | 148
13 | Nc1cc(Cl)cc(C(=O)O)c1Cl [Chloramben] | 50 | 5.87 | 5.9 | 5.88 | 5.9 | 5.46 | 5.58 | 5.3 | > 200
14 | Nc1ccc2c(c1)C(=O)c1ccccc1C2=O [2-Aminoanthraquinone] | 100 | 6.17 | 5.82 | 5.77 | 5.81 | 5.75 | 4.42 | 5.14 | 53.9
15 | CNC(=O)N(C)c1nnc(C(C)(C)C)s1 [Tebuthiuron] | 200 | 5.83 | 5.93 | 5.89 | 5.93 | 5.95 | 5.92 | 5.44 | 129
16 | Sc1nc2ccccc2s1 [2-Mercaptobenzothiazole] | 100 | 5.83 | 5.81 | 5.8 | 5.76 | 5.69 | 5.59 | 5.57 | > 200
17 | COc1ccc(C(=CC(=O)N2CCOCC2)c2ccc(Cl)cc2)cc1OC [Dimethomorph] | 100 | 6 | 5.98 | 6.05 | 6.03 | 5.92 | 5.54 | 4.95 | 117
18 | CN(C)c1ccc(N=NS(=O)(=O)O)cc1 [Fenaminosulf] | 50 | 5.95 | 5.88 | 5.79 | 5.86 | 4.72 | 3.9 | 3.5 | 54.8
19 | CCCCOC(=O)CCCCC(=O)OCCCC [Dibutyl hexanedioate] | 50 | 5.86 | 5.83 | 5.8 | 5.76 | 5.27 | 3.38 | 3.38 | 58.5
20 | CCC(C)(C)c1ccc(O)cc1 [4-(2-methylbutan-2-yl)phenol] | 200 | 5.8 | 5.81 | 5.74 | 5.76 | 5.75 | 5.92 | 4.97 | > 200
21 | CC(C)Nc1nc(Cl)nc(NC(C)C)n1 [Propazine] | 200 | 5.99 | 6.05 | 6.03 | 6.09 | 6.04 | 5.83 | 5.55 | 102
22 | Cc1c(C(=O)O)c(O)cc2c1C(=O)c1c(O)c([C@@H]3O[C@H](CO)[C@@H](O)[C@H](O)[C@H]3O)c(O)c(O)c1C2=O [Carminic acid] | 100 | 5.97 | 5.92 | 5.91 | 5.96 | 5.97 | 5.46 | – | 115

From the supplement of paper PMC4858399
